Assay results taken from patent US20130274233A1, “MODULATORS OF HEDGEHOG SIGNALING PATHWAY” (priority 2012, published 2013).
Counter-ions that a name gives are not always drawn.

Key:
Smo::EGFP [1] = target: T1, Smo::EGFP (Homo sapiens, UniProt Q99835); test: High content assay of Shh-induced Smo::EGFP accumulation in the primary cilium (Smo::EGFP/Ivs::tagRFPT NIH/3T3 cells); format: cell-based; conditions: for accumulation of Smo on the PC: in either the presence or absence of Shh; for inhibition of Shh-induced Smo::EGFP accumulation in the PC: in the presence of Shh; for Smo antagonist activity in SAR assays: Smo::EGFP/Ivs::tagRFPT cells primed with compounds for 3 hours before adding Shh
T1 construct: expressed in transfected cells
Description: (§1) NIH/3T3 cells were maintained in DMEM containing 10% (v/v) calf serum, penicillin, streptomycin, and L-glutamine. HEK293, L, cos 7, and suFU−/− mouse embryonic fibroblast cells were maintained in DMEM containing 10% (v/v) fetal bovine serum, penicillin, streptomycin, and L-glutamine. Smo::EGFP, SmoM2::GFP, and Ivs::tagRFPT were cloned into pBabe to generate retroviral particles for infection. Smo::EGFP/Ivs::tagRFPT and SmoM2::GFP/Ivs::tagRFPT stable cell lines were generated through viral infection of NIH/3T3^12. A ShhLightII Gli reporter cell line was obtained from the American Type Culture Collection (ATCC) and used in luciferase reporter assays to measure Hh pathway activity. The cell line contains a stably integrated Gli-responsive Firefly luciferase reporter and a constitutive Renilla luciferase expression construct^33. Subclones expressing Smo or SmoM2 in ShhLightII cells were used for chemical epistasis analyses.
(§2) Cells were cultured and treated in 384-well imaging plate precoated with poly-D-Lysine (Greiner Bio-one), fixed with 4% paraformaldehyde (Electron Microscopy Sciences), and stained with Hoechst (Invitrogen). Images were collected using Opera High Content Screening System (Perkin Elmer). Activityl)ase (IDBS Inc, Emeryvill, Calif.) and Pipeline Pilot (Accelrys, Inc. San Diego, Calif.) were used for high content screening data management and analysis. Acapella 2.0 software (Evotec Technologies/PerkinElmer) was used to perform multi-parametrical high content image quantification. All the images for comparison were scanned with identical microscopic settings and analyzed with the same input parameters.
(§3) Acapella 2.0 software (Evotec Technologies/PerkinElmer) was used to perform multi-parametric high content image quantification. Our image analysis script used Ivs::tagREPT to first determine the location of the PC and then Smo::EGFP to quantify the level of Smo present in the cilium.
(§4) The inventors used the spot-finding algorithm in the RFP channel to find Ivs-rich spots. Each non-overlapping spot was based on a maximum 8 pixel-radius (when using a 40× objective) around a central intensity peak of 5 pixels. A distance of at least 10 pixels was required between adjacent spot centers. Spot peaks had to exceed thresholds of relative intensity compared to the remaining body of the spot as well as to the entire image. The average, maximum and total RFP intensity of each spot were measured. The spots with sufficiently high absolute maxima to pass the selected threshold were classified as positive spots. To form candidate cilia, the inventors selected the brightest 15% of the pixels in each positive spot and merged those pixels into objects so that the brightest parts of adjacent spots could form single, larger cilia-shaped objects. To qualify the candidate cilia as true Ivs-positive cilia, the width of the objects created from merging the brightest pixels in each spot had to be at least 2 pixels and the length to half-width ratio had to exceed 3. (i.e. a 3-pixel long by 2-pixel wide cilium was the minimum accepted cilium size and the length had to be at least 1.5 fold of the width). The mean GFP intensity within these Ivs-positive cilia was used to estimate the ciliary level of Smo protein. The inventors subtracted the background of the mean GFP intensity in the 3-pixel wide area around each candidate cilium to avoid some false positives. Those Ivs-positive cilia that exceed the final mean GFP intensity threshold set for each experiment were deemed Smo-positive cilia.
Hoechst staining was used to determine the total number of nuclei per well.
Measurements of the geometry of the cilia as well as the total fluorescent intensities of each cilium in the Smo- and Ivs-channels were used to determine if any of the compounds were having unusual effects on cilia size, intensity or frequency of observation or combinations of all three characteristics.

Hh pathway activity [2] = test: Gli-luciferase reporter assay, Shh-induced Hh pathway activity (ShhLightII cells); format: cell-based; conditions: for inhibition of Shh-induced Hh pathway activity, Gli-luciferase reporter: Shh stimulation
Description: as §1
(§5) Hh activity assays were performed using ShhLightll cells, Smo/Lightll cells, SmoM2/Lightll cells, and suFU−/− mouse embryonic fibroblasts. In the suFU−/− cells, Hh activity was measured after co-transfection with Gli driven firefly luciferase and TK-renilla luciferase reporters^41. Wnt activity was measured in 293 cells co-transfected with Top-flash and TK-renilla luciferase reporters^42. Cells were cultured and treated in 96 well assay plates (Corning) and incubated with Duo-Glo luciferase substrates (Promega) to measure firefly and renilla luciferase activity sequentially using a Top Count NX Microplate Scintillation and Luminescence Counter (Perkin Elmer). The renilla luciferase signal was used to normalize the firefly reporter activity.
(§6) ShhLightII cells and SmoM2/LightII cells were cultured and treated in 96 well assay plates (Corning) and incubated with Duo-Glo luciferase substrates (Promega) to sequentially measure firefly and renilla luciferase activity. Smo, or GFP, expression plasmids were co-transfected into 3T3 cells together with a Gli-responsive firefly reporter and a TK-renilla luciferase reporter contruct to monitor effects of Smo overexpression. Co-transfection of the two reporter constructs was conducted in assays measuring Hh pathway activity in suFU−/− cells. Wnt activity was measured following co-transfection of a Top-flash and renilla luciferase reporter. In both Hh and Wnt activity assays, renilla luciferase reporter activity, or mass of protein, was used to normalize expression values. Luciferase signal was read by TopCount NX Microplate Scintillation and Luminescence Counter (Perkin Elmer). Quantitative PCR probes for Ptch1, Gli1, and β-actin were purchased from Applied Biosystems. Reactions and measurements were performed using on an Applied Biosystems 7900HT at Harvard FAS Center of System Biology. β-actin was used to normalize Ptch1 and Gil1 values.

Smo::EGFP [3] = target: T1, Smo::EGFP; test: High content screen for compound-induced Smo accumulation at the primary cilium (no Hh ligand); format: cell-based
Procedure: Cells were cultured and treated in 384-well imaging plate precoated with poly-D-Lysine (Greiner Bio-one), fixed with 4% paraformaldehyde (Electron Microscopy Sciences), and stained with Hoechst (Invitrogen). Images were collected using Opera High Content Screening System (Perkin Elmer).

Smo = test: Bodipy-cyclopamine competition assay in Cos 7 cells expressing Smo; format: binding; conditions: cells over-expressing Smo, 5 nM Bodipy-cyclopamine
Procedure: Cos 7 cells were transfected with a plasmid co-expressing Smo and a nuclear localized form of tagRFPT (pCIT-Smo). An empty parental construct (pCIT), and a construct that co-expresses SmoM2, were used as controls to assess specificity and background noise. Three days after transfection, cells were incubated with 5 nM Bodipy-cyclopamine, with or without other compounds for 1 hour at 37 °C. Cells were washed, fixed and stained with Hoechst. Images were collected by an Opera High Content Screen System. Bodipy fluorescence was quantified specifically for transfected cells (determined by red tagRFPT+ nucleus) using a program developed by the authors with Acapella 2.0 software. All of the images were scanned with identical microscopic settings and analyzed with the same input parameters.
Cos 7 cells were transfected with a plasmid that co-expresses Smo and a nuclear localized tagRFPT marker (pCIT-Smo). The empty parental construct (pCIT) and a construct that co-express SmoM2 were used as controls to assess specificity and background signal. Three days after transfection, cells were incubated with 5 nM Bodipy-cyclopamine, with or without additional compounds, for 1 hour at 37° C. Cells were then fixed and stained with Hoechst. Images were collected with the Opera High Content Screen System. Fluorescence values were assessed in transfected cells (red nuclei) with a program developed by the authors using Acapella 2.0 software. All of images were scanned with identical microscopic setting and analyzed with the same input parameters.

Hh pathway activity [4] = test: Priming and withdrawal of compound followed by Shh stimulation, Gli-luciferase reporter (hypersensitivity); format: cell-based; conditions: priming 24 hours, washout, then Shh (or SAG) stimulation
Procedure: as §5
Following the removal of drug containing medium, and extensive washing, cells were stimulated with either Hh ligand, or the direct-binding Smo agonist SAG^17,18.
as §6

primary cilium (PC) = test: Primary cilium markers in the high content assay (Ivs::tagRFPT, Arl13b, acetylated tubulin); format: cell-based; conditions: Ivs::tagRFPT and other PC markers
Description: as §3
as §4, with “cilia. […]” for “cilia.”
Cells were cultured and treated in 384-well imaging plate precoated with poly-D-Lysine (Greiner Bio-one), fixed with 4% paraformaldehyde (Electron Microscopy Sciences), and stained with Hoechst (Invitrogen). […] Acapella 2.0 software (Evotec Technologies/PerkinElmer) was used to perform multi-parametric image quantification. All the comparative images were scanned with identical microscopic setting and analyzed with the same input parameters.

SmoM2::GFP = target: T2, SmoM2::GFP (Homo sapiens, UniProt Q99835, W535L); test: Ciliary localization of SmoM2::GFP (3T3/SmoM2::GFP Overexpression/Ivs::tagRFPT); format: cell-based; conditions: SmoM2::EGFP overexpressing cells
T2 construct: expressed in transfected cells
Description: as §1, §2, §3

SmoM2 = test: Gli-luciferase reporter induced by SmoM2::GFP overexpression (SmoM2/LightII cells); format: cell-based; conditions: SmoM2 overexpression
Description: as §1, §5, §6

Wnt signaling activity = test: Wnt Top-flash reporter assay; format: cell-based; conditions: with or without Wnt3a
Procedure: as §5, §6

Hh pathway activity [5] = test: Gli-luciferase reporter assay, Hh pathway activation by compound alone (NIH/3T3 cells); format: cell-based; conditions: 1 μM SAG
Procedure: as §6

T1 sequence (Q99835 28-787): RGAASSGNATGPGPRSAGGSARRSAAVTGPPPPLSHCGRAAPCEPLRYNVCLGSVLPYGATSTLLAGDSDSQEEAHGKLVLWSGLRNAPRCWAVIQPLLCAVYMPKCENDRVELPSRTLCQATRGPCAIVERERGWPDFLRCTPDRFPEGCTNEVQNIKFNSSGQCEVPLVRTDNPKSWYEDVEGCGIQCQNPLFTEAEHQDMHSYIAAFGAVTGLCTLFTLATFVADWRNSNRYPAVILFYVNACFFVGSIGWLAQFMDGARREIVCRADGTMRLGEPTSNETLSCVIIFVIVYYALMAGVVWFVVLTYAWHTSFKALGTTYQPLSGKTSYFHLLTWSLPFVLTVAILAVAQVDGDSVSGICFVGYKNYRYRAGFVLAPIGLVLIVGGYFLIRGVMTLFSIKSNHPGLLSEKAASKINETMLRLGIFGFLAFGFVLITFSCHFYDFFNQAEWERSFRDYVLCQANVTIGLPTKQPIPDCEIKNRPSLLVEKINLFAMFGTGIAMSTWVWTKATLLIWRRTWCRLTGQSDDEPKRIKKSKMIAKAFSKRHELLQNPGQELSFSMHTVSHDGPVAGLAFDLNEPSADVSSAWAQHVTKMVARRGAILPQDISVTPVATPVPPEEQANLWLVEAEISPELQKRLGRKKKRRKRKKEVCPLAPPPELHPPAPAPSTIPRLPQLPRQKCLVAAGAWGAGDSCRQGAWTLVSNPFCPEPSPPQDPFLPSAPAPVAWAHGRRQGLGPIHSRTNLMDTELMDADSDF
T2 sequence (Q99835 28-787 W535L): as the sequence (Q99835 28-787) above, with W508L counted along it

## CC/C(=C(/CC)c1ccc(O)cc1)c1ccc(O)cc1 [diethylstilbestrol]
Smo::EGFP [1]
  accumulation of Smo on the PC: did not alter the accumulation of Smo on the PC

## CC[C@H](c1ccc(O)cc1)[C@@H](CC)c1ccc(O)cc1 [hexestrol]
Smo::EGFP [1]
  accumulation of Smo on the PC: did not alter the accumulation of Smo on the PC

## CC1=C2C[C@H]3[C@@H](CC=C4C[C@@H](O)CC[C@@]43C)[C@@H]2CC[C@]12O[C@@H]1C[C@H](C)CN[C@H]1[C@H]2C [Cyc, Cyclopamine]
Hh pathway activity [2]; Gli-luciferase induction and Smo ciliary localization, 10 μM FA
  Hh pathway inhibition by the antagonist in the presence of FA: dramatically reduced
Smo::EGFP [3]
  induction of Smo accumulation in the PC by compound alone: induces its accumulation in the PC
Smo
  competition of Bodipy-Cyc binding to Smo: effective competitor
Hh pathway activity [4]
  hypersensitivity to Hh pathway stimulation after priming with and removal of compound, Gli-luciferase: elevated signaling response

## 4-hydroxytamoxifen
Smo::EGFP [1]
  accumulation of Smo on the PC: did not alter the accumulation of Smo on the PC

## Cl.Cl.Clc1ccccc1CNCC1CCC(CNCc2ccccc2Cl)CC1 (centres unmarked) [AY9944]
Hh pathway activity [2]
  inhibition of Shh-induced Hh pathway activity, Gli-luciferase reporter: inhibited
Smo::EGFP [1]
  inhibition of Shh-induced Smo::EGFP accumulation in the PC: inhibited

## CCN(CC)c1ccc(/C=N/NC(=O)c2ccc(OC)cc2)cc1 [RL-0070464]
Smo::EGFP [1]
  Smo antagonist activity in SAR assays: can be tolerated

## CC[C@]1(O)C[C@@H]2CN(CCc3c([nH]c4ccccc34)[C@@](C(=O)OC)(c3cc4c(cc3OC)N(C)[C@H]3[C@@](O)(C(=O)OC)[C@H](OC(C)=O)[C@]5(CC)C=CCN6CC[C@]43[C@@H]65)C2)C1 [vinblastine]
Hh pathway activity [2]
  inhibition of Shh-induced Hh pathway activity, Gli-luciferase reporter: appear as Hh pathway antagonists
Primary cilium (PC)
  effect on primary cilium markers / ciliary structure: decrease in the Ivs::tagRFPT ciliary signal

## CC(C)C(=O)OCC(=O)[C@@]12O[C@H](C3CCCCC3)O[C@@H]1C[C@H]1[C@@H]3CCC4=CC(=O)C=C[C@]4(C)[C@H]3[C@@H](O)C[C@@]12C [Cic, Ciclesonide]
Hh pathway activity [2]
  inhibition of Shh-induced Hh pathway activity, Gli-luciferase reporter: inhibited
Primary cilium (PC)
  effect on primary cilium markers / ciliary structure: did not disrupt
Smo::EGFP [1]
  inhibition of Shh-induced Smo::EGFP accumulation in the PC: inhibition of Smo accumulation in the PC
SmoM2::GFP
  effect on SmoM2 ciliary localization: attenuated
SmoM2
  effect on SmoM2 driven Hh pathway activity, transcriptional reporter: attenuated

## CCCC1O[C@@H]2C[C@H]3[C@@H]4CCC5=CC(=O)C=C[C@]5(C)[C@H]4[C@@H](O)C[C@]3(C)[C@]2(C(=O)CO)O1 (some centres unmarked) [Bud, Budesonide]
Wnt signaling activity
  effect on Wnt pathway reporter activity: no effect

## CC(C)c1ccc(/C=N/NC(=O)c2ccc(O)cc2)cc1 [GSK4716]
Hh pathway activity [2]; Mus musculus, Shh Light II, 3T3/Shh-LightII cells, stimulus Shh, read-out: IC50, inhibition of Shh-induced expression of Gli-luciferase reporter
  IC50: 10 µM
Smo::EGFP [1]; 3T3/Smo::GFP/Ivs::tagRFPT cells, stimulus Shh, read-out: IC50, inhibition of Shh-induced Smo::GFP ciliary accumulaton
  IC50: 2 µM

## CNC1CCC(N(Cc2cccc(-c3ccncc3)c2)C(=O)c2sc3ccccc3c2Cl)CC1 (centres unmarked) [SAG]
Smo::EGFP [3]
  induction of Smo accumulation in the PC by compound alone: induces its accumulation in the PC
Hh pathway activity [5]
  transcriptional response in Gli-luciferase reporter assay: 25 fold

## O=C(N/N=C/c1ccccc1)c1ccc(O)cc1 [RL-0070462]
Smo::EGFP [1]
  Smo antagonist activity in SAR assays: dramatically impaired the activity

## CC(=O)N1CCN(c2ccc(OCC3COC(Cn4ccnc4)(c4ccc(Cl)cc4Cl)O3)cc2)CC1 (centres unmarked) [KCZ, Ketoconazole]
Hh pathway activity [2]
  inhibition of Shh-induced Hh pathway activity, Gli-luciferase reporter: inhibited
Smo::EGFP [1]
  inhibition of Shh-induced Smo::EGFP accumulation in the PC: inhibited

## CC/C(=C(\c1ccccc1)c1ccc(OCCN(C)C)cc1)c1ccccc1 [tamoxifen citrate]
Smo::EGFP [1]
  accumulation of Smo on the PC: did not alter the accumulation of Smo on the PC

## N#CC(C(=O)c1ccc(Cl)cc1Cl)c1nc2ccccc2c(=O)[nH]1 (centres unmarked) [HPI-4]
Hh pathway activity [2]
  inhibition of Shh-induced Hh pathway activity, Gli-luciferase reporter: appear as Hh pathway antagonists
Primary cilium (PC)
  effect on primary cilium markers / ciliary structure: decrease in the Ivs::tagRFPT ciliary signal

## CCN(CC)c1ccc(/C=N/NC(=O)c2ccccc2)cc1 [RL-0070463]
Smo::EGFP [1]
  Smo antagonist activity in SAR assays: moderately decreased the activity
